Experimental data taken from patent US11370774B2, “Substituted benzofuran, benzopyrrole, benzothiophene, and structurally related complement inhibitors” (BioCryst Pharmaceuticals, Inc., priority 2018, dated 2022).

Each molecule was assayed against Factor D (Homo sapiens (Human), UniProt P00746) (assay: Factor D esterolytic assay (Z-Lys-SBzl substrate, DTNB, 405 nm)). Details: Z-Lys-SBzl 1.29 mM, pH 7.5, 10% DMSO, tested a minimum of three times, read-out: Measured Ki (IC50) Value for Compounds: IC50.
Type: biochemical
Procedure: The IC50 value of a compound (i.e., the concentration of the compound that inhibits 50% of the enzymatic activity) was calculated according to the procedure reported in U.S. Pat. No. 6,653,340 B1, e.g., column 74 (incorporated by reference).
Specifically, the compounds were dissolved in a stock solution of DMSO at 10.0 or 100 mM. A portion of this stock solution was added to assay buffer in a final volume of 50 μL. Controls included buffer alone and enzyme solutions to which DMSO was added. Substrate was added to the reaction wells immediately or after incubation at room temperature. The reaction rates were measured spectrophotometrically by the generation of product at 405 nm for 600 sec. Background absorbance at 690 nm was measured and subtracted from the absorbance at 405 nm for each well.
The reaction rate for enzyme alone was compared to the rate of enzyme in the presence of inhibitor and the percent inhibition was calculated as shown below: Percent Inhibition=[Rate without inhibitor−Rate with inhibitor)/(Rate without inhibitor)]×100 Factor D Esterolytic Assay:
An established esterolytic assay for the measurement of Factor D activity and inhibition of Factor D activity was used (Kam, C. M.; McRae, B. J.; Harper, J. W.; Niemann, M. A.; Volanakis, J. E.; Powers, J. C. Human complement proteins D, C2, and B Active site mapping with peptide thioester substrates. J Biol. Chem. 1987, 262, 3444-3451). For this assay Z-Lys-SBzl, 1.29 mM (Kim, S.; Narayana, S. V. L; Volanakis, J. E. Mutational analysis of the substrate binding site of human complement Factor D. Biochemistry. 1994, 33, 14393-14399.) was used as the substrate for Factor D ([…]). Hydrolysis of this compound by Factor D liberated a free sulfhydryl group which is then reacted with 5,5′-dithiobis(2nitrobenzoic acid) producing an intense yellow color (Habeeb, A. F. S. A. Reaction of protein sulfhydryl groups with Ellman's Reagent. Methods in Enzymol. 1976, 25, 457-464). The assays were performed in 96 well microtiter plates and rates of hydrolysis were monitored at 405 nm on a Biotek Synergy H1 plate reader. Hydrolysis rates were reported as change in mOD/min. The assay was conducted in 100 mM HEPES, 500 mM NaCl, pH 7.5 containing 10% DMSO in a final volume of 50 μL per well.
An IC50, a compound concentration which inhibits 50% of the enzymatic activity, was calculated. Compounds in the examples were tested a minimum of three times.

Factor D, sequence (P00746 26-253): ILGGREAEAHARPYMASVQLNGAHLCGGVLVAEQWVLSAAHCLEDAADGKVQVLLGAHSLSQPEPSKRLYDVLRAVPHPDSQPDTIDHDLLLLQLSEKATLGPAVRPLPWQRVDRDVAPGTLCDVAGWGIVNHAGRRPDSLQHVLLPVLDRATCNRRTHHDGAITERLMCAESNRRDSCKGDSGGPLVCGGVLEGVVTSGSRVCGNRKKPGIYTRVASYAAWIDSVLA

With `NCc1cccc(-c2cc(NC(=O)[C@@H]3CCC[C@H]3C(=O)NCc3cccc(Cl)c3F)cc3ccoc23)c1` (relative stereo) [Compound 217e, (trans)-N1-(7-(3-(aminomethyl)phenyl)benzofuran-5-yl)-N2-(3-chloro-2-fluorobenzyl)cyclopentane-1,2-dicarboxamide] as the molecule, how does the IC50 read?
The IC50 was under 1000 nM.

Which IC50 does the source give for `NCc1cccc(-c2cc(OC[C@@H]3CCC[C@H]3C(=O)NCc3cccc(Cl)c3F)cc3ccoc23)c1` (relative stereo) [Compound 340e, (trans)-2-(((7-(3-(aminomethyl)phenyl)benzofuran-5-yl)oxy)methyl)-N-(3-chloro-2-fluorobenzyl)cyclopentanecarboxamide] here?
The IC50 was 1000 to 10000 nM.

How did the IC50 turn out when `NCc1cccc(-c2cc(C(=O)N[C@@H]3CCC[C@H]3C(=O)NCc3cccc(Cl)c3F)cc3ccoc23)c1` (relative stereo) [Compound 376e, 7-(3-(aminomethyl)phenyl)-N-((trans)-2-((3-chloro-2-fluorobenzyl)carbamoyl)cyclopentyl)benzofuran-5-carboxamide] was run?
The IC50 was under 1000 nM.

How did the IC50 turn out when `Cc1ccc(CC(=O)O)c(OCc2cc(-c3cccc(C(N)CF)c3)c3occc3c2)c1` (single isomer, unassigned; (+)) [Compound 269h, (+)-2-(2-((7-(3-(1-amino-2-fluoroethyl)phenyl)benzofuran-5-yl)methoxy)-4-methylphenyl)acetic acid] was run?
Its IC50 is under 1000 nM.

With `COCc1cc2cc(COc3ccccc3CC(=O)O)cc(-c3cccc(C(N)CF)c3)c2o1` (single isomer, unassigned; (+)) [Compound 278e, (+)-2-(2-((7-(3-(1-amino-2-fluoroethyl)phenyl)-2-(methoxymethyl)benzofuran-5-yl)methoxy)phenyl)acetic acid] as the molecule, how does the IC50 read?
Its IC50 is under 1000 nM.

`NC(CF)c1cc(-c2cc(COc3ccccc3CC(=O)O)cc3ccoc23)ccn1` (single isomer, unassigned; (+)) [Compound 327d, (+)-2-(2-((7-(2-(1-amino-2-fluoroethyl)pyridin-4-yl)benzofuran-5-yl)methoxy)phenyl)acetic acid] was tested. Which IC50 did it give?
Its IC50 is under 1000 nM.

How did the IC50 turn out when `NC(CF)c1cccc(-c2cc(COc3ccccc3CC(=O)O)cc3ccoc23)c1F` (single isomer, unassigned; (+)) [Compound 402f, (+)-2-(2-((7-(3-(1-amino-2-fluoroethyl)-2-fluorophenyl)benzofuran-5-yl)methoxy)phenyl)acetic acid] was run?
Its IC50 is under 1000 nM.

With `NCc1ccc(CC(=O)O)c(OCc2cc(-c3cccc(C(N)CF)c3)c3occc3c2)c1` (single isomer, unassigned; (+)) [Compound 410d, (+)-2-(2-((7-(3-(1-amino-2-fluoroethyl)phenyl)benzofuran-5-yl)methoxy)-4-(aminomethyl)phenyl)acetic acid] as the molecule, how does the IC50 read?
The IC50 was under 1000 nM.

Which IC50 does the source give for `N#Cc1ccc(CC(=O)O)c(OCc2cc(-c3cccc(C(N)CF)c3)c3occc3c2)c1` (single isomer, unassigned; (+)) [Compound 412b, (+)-2-(2-((7-(3-(1-amino-2-fluoroethyl)phenyl)benzofuran-5-yl)methoxy)-4-cyanophenyl)acetic acid] here?
Its IC50 is under 1000 nM.

How did the IC50 turn out when `CC(=O)Nc1ccc(CC(=O)O)c(OCc2cc(-c3cccc(C(N)CF)c3)c3occc3c2)c1` (single isomer, unassigned; (+)) [Compound 434c, (+)-2-(4-acetamido-2-((7-(3-(1-amino-2-fluoroethyl)phenyl)benzofuran-5-yl)methoxy)phenyl)acetic acid] was run?
The IC50 was under 1000 nM.

How did the IC50 turn out when `NC(=O)c1ccc(CC(=O)O)c(OCc2cc(-c3cccc(C(N)CF)c3)c3occc3c2)c1` (single isomer, unassigned; (+)) [Compound 436c, (+)-2-(2-((7-(3-(1-amino-2-fluoroethyl)phenyl)benzofuran-5-yl)methoxy)-4-carbamoylphenyl)acetic acid] was run?
Its IC50 is under 1000 nM.

How did the IC50 turn out when `COCc1cc2cc(COc3cc(C)ccc3CC(=O)O)cc(-c3cccc(C(N)CF)c3)c2o1` (single isomer, unassigned; (+)) [Compound 455c, (+)-2-(2-((7-(3-(1-amino-2-fluoroethyl)phenyl)-2-(methoxymethyl)benzofuran-5-yl)methoxy)-4-methylphenyl)acetic acid] was run?
Its IC50 is under 1000 nM.

For `NCc1cccc(-c2cc(COc3ccccc3CC(=O)O)cc3cc(C(N)c4ccccc4)oc23)c1` (single isomer, unassigned; (+)) [Compound 460d, (+)-2-(2-((2-(amino(phenyl)methyl)-7-(3-(aminomethyl)phenyl)benzofuran-5-yl)methoxy)phenyl)acetic acid], which IC50 is on record?
The IC50 was under 1000 nM.

With `NC(CF)c1cc(-c2cc(COc3ccccc3CC(=O)O)cc3ccoc23)ccn1` (single isomer, unassigned; (-)) [Compound 326g, (−)-2-(2-((7-(2-(1-amino-2-fluoroethyl)pyridin-4-yl)benzofuran-5-yl)methoxy)phenyl)acetic acid] as the molecule, how does the IC50 read?
The IC50 was 1000 to 10000 nM.

With `CC(N)c1cc2cc(COc3ccccc3CC(=O)O)cc(-c3cccc(CN)c3)c2o1` (single isomer, unassigned; (-)) [Compound 442d, (−)-2-(2-((2-(1-aminoethyl)-7-(3-(aminomethyl)phenyl)benzofuran-5-yl)methoxy)phenyl)acetic acid] as the molecule, how does the IC50 read?
The IC50 was under 1000 nM.

With `NCc1cccc(-c2nc(C(=O)Nc3ccccc3CC(=O)O)c3cccn3n2)c1` [Compound 1h, 2-(2-(2-(3-(aminomethyl)phenyl)pyrrolo[2,1-f][1,2,4]triazine-4-carboxamido)phenyl)acetic acid] as the molecule, how does the IC50 read?
Its IC50 is under 1000 nM.

With `COC(=O)Cc1ccccc1NC(=O)c1nc(-c2cccc(CN)c2)nc2c1CCC2` [Compound 2e, methyl 2-(2-(2-(3-(aminomethyl)phenyl)-6,7-dihydro-5H-cyclopenta[d]pyrimidine-4-carboxamido)phenyl)acetate] as the molecule, how does the IC50 read?
The IC50 was over 10000 nM.

Which IC50 does the source give for `NCc1cccc(-c2nc3c(c(C(=O)Nc4ccccc4CC(=O)O)n2)CCC3)c1` [Compound 2f, 2-(2-(2-(3-(aminomethyl)phenyl)-6,7-dihydro-5H-cyclopenta[d]pyrimidine-4-carboxamido)phenyl)acetic acid] here?
Its IC50 is under 1000 nM.

How did the IC50 turn out when `NCc1cccc(-c2nc(C(=O)Nc3ccccc3CC(=O)O)nc3[nH]ccc23)c1` [Compound 3i, 2-(2-(4-(3-(aminomethyl)phenyl)-7H-pyrrolo[2,3-d]pyrimidine-2-carboxamido)phenyl)acetic acid] was run?
Its IC50 is under 1000 nM.

Which IC50 does the source give for `C[C@@H](N)c1cccc(-c2nc(C(=O)Nc3ccccc3CC(=O)O)c3cccn3n2)c1` [Compound 4e, (R)-2-(2-(2-(3-(1-aminoethyl)phenyl)pyrrolo[2,1-f][1,2,4]triazine-4-carboxamido)phenyl)acetic acid] here?
Its IC50 is under 1000 nM.

For `CCOC(=O)Cc1ccccc1NC(=O)c1nc(-c2cccc(CN)c2)c2cccn2n1` [Compound 5g, ethyl 2-(2-(4-(3-(aminomethyl)phenyl)pyrrolo[2,1-f][1,2,4]triazine-2-carboxamido)phenyl)acetate], which IC50 is on record?
Its IC50 is under 1000 nM.

With `NCc1cccc(-c2cc(C(=O)Nc3ccccc3CC(=O)O)c3nccn3c2)c1` [Compound 6e, 2-(2-(6-(3-(aminomethyl)phenyl)imidazo[1,2-a]pyridine-8-carboxamido)phenyl)acetic acid] as the molecule, how does the IC50 read?
Its IC50 is 1000 to 10000 nM.

How did the IC50 turn out when `NCc1cccc(-c2cc(C(=O)Nc3ccccc3CC(=O)O)cc3[nH]ncc23)c1` [Compound 7d, 2-(2-(4-(3-(aminomethyl)phenyl)-1H-indazole-6-carboxamido)phenyl)acetic acid] was run?
Its IC50 is under 1000 nM.

With `NCc1cccc(-c2nc(COc3ccccc3CC(=O)O)nn3cccc23)c1` [Compound 8e, 2-(2-((4-(3-(aminomethyl)phenyl)pyrrolo[2,1-f][1,2,4]triazin-2-yl)methoxy)phenyl)acetic acid] as the molecule, how does the IC50 read?
Its IC50 is under 1000 nM.

Which IC50 does the source give for `NCc1cccc(-c2cc(C(=O)Nc3ccccc3CC(=O)O)cc3[nH]ccc23)c1` [Compound 9d, 2-(2-(4-(3-(aminomethyl)phenyl)-1H-indole-6-carboxamido)phenyl)acetic acid] here?
Its IC50 is under 1000 nM.

With `NCc1cccc(-c2cc(C(=O)Nc3ccccc3CC(=O)O)cc3c2cnn3CC2CC2)c1` [Compound 10d, 2-(2-(4-(3-(aminomethyl)phenyl)-1-(cyclopropylmethyl)-1H-indazole-6-carboxamido)phenyl)acetic acid] as the molecule, how does the IC50 read?
Its IC50 is under 1000 nM.

With `CCOC(=O)Cc1ccccc1NC(=O)c1cc(-c2cccc(CN)c2)c2cn(CC3CC3)nc2c1` [Compound 11a, ethyl 2-(2-(4-(3-(aminomethyl)phenyl)-2-(cyclopropylmethyl)-2H-indazole-6-carboxamido)phenyl)acetate] as the molecule, how does the IC50 read?
Its IC50 is over 10000 nM.
